Results on 24 compounds are retold here after US8901305B2, “Aryl lactam kinase inhibitors” (Bristol-Myers Squibb Company, priority 2012, dated 2014).

The target of test [1] is T1, AAK1 (full length human) with AP2M1 in HEK293F cells (Homo sapiens, UniProt Q2M2I8).
T1 construct: expressed in transfected cells; host or cells: HEK293F
Kind of test: HEK281 cell-based assay (phospho-mu2 Western blot in transfected HEK293F cells). The note with it: 3 hours, inhibition of mu2 phosphorylation. The procedure:
HEK293F cells were cultured in media containing DMEM (Gibco, cat. #11965), 10% FBS (SAFC Biosciences, cat. #12103C), 1×GPS (glutamine, penicillin and streptomycin). On day one, cells were plated on a 10 cm dish so that they are ˜80% confluent at time of transfection. Roughly 12 million cells were in a 10 cm dish at time of transfection. On day two, each dish was transfected with 48 ug DNA and 144 ul Lipofectamine 2000 (Invitrogen, cat. #11668-019). The DNA was comprised of a mixture (per 10 cm dish) containing 3 ug AAK1/HA/pIRES (full length human, NCBI accession no. NP_055726.2), 45 μg Flag/AP2MI/pcDNA (full length human), and 1.5 ml OPTI-MEM. The Lipofectamine 2000 is made up of a mixture (per 10 cm dish) containing 144 μl Lipofectamine 2000 and 1.5 ml OPTI-MEM. Each mixture was transferred to individual 15 ml tubes and incubated at RT for 5 minutes, and then the two mixes were combined and incubated at RT for 20 minutes. Growth media was then aspirated from each 10 cm plate and replaced with 10 ml of DMEM+10% FBS (no GPS). Finally, 3 ml DNA/Lipofectamine mix was added to each 10 cm dish and mix gently followed by incubate of plate overnight at 37° C. and 5% CO2.
On day three, compounds were diluted in 100% DMSO at 1000× final concentration, followed by 3-fold serial dilutions for a total of 5 concentrations tested. Four compounds were tested per 10 cm dish. One ul of each compound dilution was then pipetted into a deep-well, 96-well plate, followed by addition of 500 μl DMEM+0.5% FBS into each well for a 2× final concentration of each compound. Cells were resuspended in a 10 cm dish by simple pipetting (HEK293 cells come off the plate that easy at this point) and then transferred to a 50 ml conical tube and pelleted by centrifugation at 1000 rpm for 5 min. Cell pellets were then resuspended in 2.75 ml DMEM+0.5% FBS per 10 cm dish and 100 μl of cell suspension transferred into each well of 96-well TC plate. Finally, 100 μl of 2× compound diluted in DMEM+0.5% FBS was then added into wells containing cell suspension for a 1× final concentration. Plates were then incubated at 37° C. and 5% CO2 for 3 hours followed by transferring of cell suspensions from each well into 12-tube PCR strips. The PCR strips were spun in a tip rack at 1000 rpm for 5 minutes to pellet cells and media was then removed by pipetting without disturbing the cell pellet.
To prepare for Western Blot analysis, cell pellets were resuspend in 40 ul 1×LDS-PAGE sample buffer (Invitrogen, cat. # NP0008)+2× Halt phosphatase and protease inhibitor cocktail (Thermo Scientific, cat. #1861284), followed by sonicating each with microtip sonicator set at 5 for 8-10 seconds. Five ul of 10× NuPage Sample Reducing Agent (with […]) was to each sample followed by heat denaturing at 70 C for 10 min on PCR machine. A total of 10 μl per sample was loaded into each lane of a 4-20% Tris-Glycine Criterion 26-well gel (Biorad, cat. #345-0034) for the phospho-mu2 blot and 10 μl per lane in a 4-12% Bis-Tris (+MES buffer) NuPAGE 26-well gel (Invitrogen, cat. # WG1403BX10) for the mu2 blot. For controls, 2 ng of phospho-mu2 or 20 ng mu2/Flag proteins were loaded in the last well of each gel. After SDS-PAGE, samples on each gel were transferred to PVDF membrane using an iBlot and membranes were blocked for one hour in TBST+5% milk, followed by wash 3× for 5-10 min with TBST. Criterion gels were probed with rabbit anti-phospho-mu2 (1:5000; a rabbit polyclonal antibody produced by New England Peptide and affinity purified at Lexicon) in TBST+5% BSA, whereas, NuPAGE gels were probed with mouse anti-Flag (1:500; Sigma, cat. # F1804) in TBST+5% milk, and these primary antibodies were incubated overnight at 4° C. on a rocker. […]
(Immunoblotting shows a protein as a band on a membrane.)

Test [2] has as its target T2, GST-Xa-hAAK1 (Homo sapiens, UniProt Q2M2I8).
T2 construct: made in house
The test is described as follows: AAK1 kinase assay. The note with it: ATP 22 μM, 3 hours at room temperature. The class given is biochemical. Here is the method: The assays were performed in U-bottom 384-well plates. […] The reactions were initiated by the combination of bacterially expressed, GST-Xa-hAAK1 with substrates and test compounds. The reactions were incubated at room temperature for 3 hours and terminated by adding 60 μl of 35 mM EDTA buffer to each sample. The reactions were analyzed on the Caliper LabChip 3000 (Caliper, Hopkinton, Mass.) by electrophoretic separation of the fluorescent substrate and phosphorylated product. […] Compounds were dissolved at 10 mM in dimethylsulfoxide (DMSO) and evaluated at eleven concentrations. IC50 values were derived by non-linear regression analysis.

T1 sequence (Q2M2I8 whole entry): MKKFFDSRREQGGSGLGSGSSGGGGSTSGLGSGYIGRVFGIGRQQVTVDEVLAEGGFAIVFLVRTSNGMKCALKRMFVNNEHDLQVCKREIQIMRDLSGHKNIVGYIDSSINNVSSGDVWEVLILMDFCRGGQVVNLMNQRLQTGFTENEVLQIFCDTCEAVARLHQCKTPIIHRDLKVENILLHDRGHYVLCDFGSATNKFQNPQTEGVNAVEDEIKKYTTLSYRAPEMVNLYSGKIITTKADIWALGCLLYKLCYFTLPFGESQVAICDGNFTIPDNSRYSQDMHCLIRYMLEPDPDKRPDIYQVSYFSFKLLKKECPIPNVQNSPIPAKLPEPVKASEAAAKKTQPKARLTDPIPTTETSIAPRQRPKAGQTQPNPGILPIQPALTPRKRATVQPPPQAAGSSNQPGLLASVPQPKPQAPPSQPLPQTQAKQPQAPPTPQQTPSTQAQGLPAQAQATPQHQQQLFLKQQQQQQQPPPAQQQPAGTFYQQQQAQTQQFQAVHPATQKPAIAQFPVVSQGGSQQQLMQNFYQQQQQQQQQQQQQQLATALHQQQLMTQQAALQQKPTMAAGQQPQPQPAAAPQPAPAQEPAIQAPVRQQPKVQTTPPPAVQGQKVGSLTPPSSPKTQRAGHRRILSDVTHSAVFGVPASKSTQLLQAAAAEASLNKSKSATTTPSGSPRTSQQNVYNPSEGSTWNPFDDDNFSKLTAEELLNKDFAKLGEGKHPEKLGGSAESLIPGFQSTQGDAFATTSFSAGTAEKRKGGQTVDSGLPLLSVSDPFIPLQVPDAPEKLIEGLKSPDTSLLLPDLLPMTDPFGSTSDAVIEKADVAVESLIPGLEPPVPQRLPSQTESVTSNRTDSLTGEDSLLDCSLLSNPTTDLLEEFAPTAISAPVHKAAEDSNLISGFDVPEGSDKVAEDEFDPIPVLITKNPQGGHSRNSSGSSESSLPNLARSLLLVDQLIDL
T2 sequence (Q2M2I8 whole entry): as above

A word on the IC50: it is the concentration that inhibits the measured activity by half. As for `Cc1nccc2c1c(=O)n(C)c1cc(OC[C@@H](N)CC3CC3)c(Cl)cc21` [Example 23, (S)-8-(2-amino-3-cyclopropylpropoxy)-9-chloro-4,6-dimethylbenzo[c][2,7]naphthyridin-5(6H)-one], the half-inhibitory concentration (IC50) is 1 to 10 nM in test [1] (given as IC50 range) and 0.12 nM in test [2].

Consider `CC(C)CC(C)(N)COc1ccc2c3c(F)cncc3c(=O)n(C)c2c1` (stereo not drawn) [Example 97, 8-(2-amino-2,4-dimethylpentyloxy)-1-fluoro-6-methylbenzo[c][2,7]naphthyridin-5(6H)-one], for which the concentration for half-maximal inhibition (IC50) in test [1] (given as IC50 range) is 10 to 100 nM; in test [2] (given as IC50 range), 1 to 10 nM.

With `Cc1nccc2c1c(=O)n(C)c1cc(OC[C@@H](N)CC(C)C)c(-c3cnco3)cc21` [Example 72, (S)-8-(2-amino-4-methylpentyloxy)-4,6-dimethyl-9-(oxazol-5-yl)benzo[c][2,7]naphthyridin-5(6H)-one], the half-maximal inhibitory concentration (IC50) in test [1] (given as IC50 range) and in test [2] (given as IC50 range) was less than 1 nM throughout.

`Cc1nccc2c1c(=O)n(C)c1cc(OC[C@@H](N)CC(C)C)c(C#N)cc21` [Example 64, (S)-8-(2-amino-4-methylpentyloxy)-4,6-dimethyl-5-oxo-5,6-dihydrobenzo[c][2,7]naphthyridine-9-carbonitrile]: the values for the IC50 in test [1] and in test [2] (given as IC50 range) were 0.6 nM and less than 1 nM, respectively.

In the case of `Cc1nccc2c1c(=O)n(C)c1cc(OC(C)[C@@H](N)CC(C)C)ccc21` (mixture of isomers) [Example 33, 8-(((2S,3S)-3-amino-5-methylhexan-2-yl)oxy)-4,6 dimethylbenzo[c][2,7]naphthyridin-5(6H)-one], the IC50 in test [1] is 11 nM; in test [2] (given as IC50 range), 10 to 100 nM.

Consider `Cc1nccc2c1c(=O)n(C)c1cc(OC[C@@H](N)CC(C)C)c(F)cc21` [Example 70, (S)-8-(2-amino-4-methylpentyloxy)-9-fluoro-4,6-dimethylbenzo[c][2,7]naphthyridin-5(6H)-one], for which the IC50 in test [1] (given as IC50 range) and in test [2] (given as IC50 range) was 1 to 10 nM in each case.

Turning to `CC(C)C[C@H](N)COc1cc2c(cc1C1CC1)c1ccncc1c(=O)n2C` [Example 6, (S)-8-((2-amino-4-methylpentyl)oxy)-9-cyclopropyl-6-methylbenzo[c][2,7]naphthyridin-5(6H)-one], the 50% inhibitory concentration (IC50) was 2.1 nM in test [1] and 1 to 10 nM in test [2] (given as IC50 range).

With `CC(C)C[C@H](N)COc1cc2c(cc1-c1cnco1)c1ccncc1c(=O)n2C` [Example 48, (S)-8-(2-amino-4-methylpentyloxy)-6-methyl-9-(oxazol-5-yl)benzo[c][2,7]naphthyridin-5(6H)-one], the results for the half-inhibitory concentration (IC50) in test [1] and in test [2] (given as IC50 range) were 1.8 nM and 1 to 10 nM, respectively.

With `Cc1nccc2c1c(=O)[nH]c1cc(OC[C@@H](N)CC(C)C)c(Br)cc12` [Example 49, (S)-8-(2-amino-4-methylpentyloxy)-9-bromo-4-methylbenzo[c][2,7]naphthyridin-5(6H)-one], the midpoint of inhibition in test [1], the IC50, lay at 0.6 nM.

The compound `CC(C)C[C@H](N)COc1cc2c(cc1Cl)c1ccncc1c(=O)n2C` [Example 43, (S)-8-((2-amino-4-methylpentyl)oxy)-9-chloro-6-methylbenzo[c][2,7]naphthyridin-5(6H)-one] registered an IC50 in test [1] of 5 nM.

As to `Cc1nccc2c1c(=O)[nH]c1cc(OC[C@@H](N)CC(C)C)c(F)cc12` [Example 101, (S)-8-(2-amino-4-methylpentyloxy)-9-fluoro-4-methylbenzo[c][2,7]naphthyridin-5(6H)-one], the half-maximal inhibitory concentration (IC50) in test [1] is 5.2 nM; in test [2] (given as IC50 range), 1 to 10 nM.

As for `CC(C)C[C@H](N)COc1c(Cl)cc2c3ccncc3c(=O)n(C)c2c1Cl` [Example 10, (S)-8-((2-amino-4-methylpentyl)oxy)-7,9-dichloro-6-methylbenzo[c][2,7]naphthyridin-5(6H)-one], the midpoint of inhibition in test [1], the IC50, lay at 29 nM.

`CN[C@H](COc1cc2c(cc1C#N)c1ccnc(C)c1c(=O)n2C)CC(C)C` [Example 65, (S)-4,6-dimethyl-8-(4-methyl-2-(methylamino)pentyloxy)-5-oxo-5,6-dihydrobenzo[c][2,7]naphthyridine-9-carbonitrile] showed an IC50 in test [1] (given as IC50 range) of 1 to 10 nM.

For the compound `Cc1nccc2c1c(=O)n(C)c1cc(OC[C@@H](N)CC(C)C)c(C(F)F)cc21` [Example 27, (S)-8-((2-amino-4-methylpentyl)oxy)-9-(difluoromethyl)-4,6-dimethylbenzo[c][2,7]naphthyridin-5(6H)-one], in test [1], the concentration for half-maximal inhibition (IC50) came out at 0.3 nM.

`CC(C)C[C@H](N)COc1cc2c(cc1C#N)c1ccncc1c(=O)n2C` [Example 5, (S)-8-((2-amino-4-methylpentyl)oxy)-6-methyl-5-oxo-5,6 dihydrobenzo[c][2,7]naphthyridine-9-carbonitrile] came in with a half-inhibitory concentration (IC50) in test [1] of 2.5 nM.

In the case of `Cc1cc2c3ccncc3c(=O)n(C)c2cc1OC[C@@H](N)CC(C)C` [Example 4, (S)-8-((2-amino-4-methylpentyl)oxy)-6,9-dimethylbenzo[c][2,7]naphthyridin-5(6H)-one], the IC50 in test [1] came out at 2.4 nM.

With `CCc1cc2c3ccnc(C)c3c(=O)n(C)c2cc1OC[C@@H](N)CC(C)C` [Example 36, (S)-8-((2-amino-4-methylpentyl)oxy)-9-ethyl-4,6-dimethylbenzo[c][2,7]naphthyridin-5(6H)-one], in test [2], the IC50 is 0.35 nM.

For `Cc1nccc2c1c(=O)n(C)c1cc(OC[C@@](C)(N)CC(C)C)ccc21` (single isomer, unassigned) [Example 38], the 50% inhibitory concentration (IC50) in test [2] worked out at 13 nM.

Turning to `Cc1nccc2c1c(=O)n(C)c1cc(OC[C@@H](N)CC(C)C)c(CO)cc21` [Example 71, (S)-8-(2-amino-4-methylpentyloxy)-9-(hydroxymethyl)-4,6-dimethylbenzo[c][2,7]naphthyridin-5(6H)-one], in test [2] (given as IC50 range), the IC50 fell in the range of 1 to 10 nM.

For `Cc1nccc2c1c(=O)n(C)c1cc(OC[C@@H](N)CC3CCC3)ccc21` [Example 22, (S)-8-(2-amino-3-cyclobutylpropoxy)-4,6-dimethylbenzo[c][2,7]naphthyridin-5(6H)-one], the IC50 in test [2] came to 12 nM.

Consider `Cc1nccc2c1c(=O)n(C)c1cc(OC[C@@H](N)CC3CC3)ccc21` [Example 21, (S)-8-(2-amino-3-cyclopropylpropoxy)-4,6-dimethylbenzo[c][2,7]naphthyridin-5(6H)-one], for which the IC50 in test [2] was found to be 23 nM.

Consider `Cc1nccc2c1c(=O)[nH]c1c(F)c(OCC(C)(N)CC(C)C)ccc12` (stereo not drawn) [Example 105, 8-(2-amino-2,4-dimethylpentyloxy)-7-fluoro-4-methylbenzo[c][2,7]naphthyridin-5(6H)-one], for which the 50% inhibitory concentration (IC50) in test [2] (given as IC50 range) was 10 to 100 nM.

Regarding `CN[C@H](COc1ccc2c3ccnc(C)c3c(=O)n(C)c2c1)CC(C)C` [Example 95, (S)-4,6-dimethyl-8-(4-methyl-2-(methylamino)pentyloxy)benzo[c][2,7]naphthyridin-5(6H)-one], the half-inhibitory concentration (IC50) in test [2] (given as IC50 range) fell in the range of 10 to 100 nM.

`CC(C)C[C@H](N)COc1ccc2c3ccncc3c(=O)n(Cc3ccccc3)c2c1` [Example 11, (S)-8-((2-amino-4-methylpentyl)oxy)-6-benzylbenzo[c][2,7]naphthyridin-5(6H)-one]: the IC50 in test [2] worked out at 73 nM.
